Where two headings read alike, the source gives them in different places. *1 amine or outer side, *2 acyl side, *3 side chain or, on linkers, in order; H or OH if unused. Where a SMILES comes first, the peptide text is derived from it. Bridges are numbered along the chain shown (N, C = ends). Roman numbers before positions name the chains, in order. [ ]: non-standard residue; d: D form. Actinocin(9to1) = Cc1c2oc3c(C)ccc(C(=O)[*:1])c3nc-2c(C(=O)[*:2])c(N)c1=O; NMeV = CN[C@H](C(=O)O)C(C)C; Sar = CNCC(=O)O
Legend:
Assay in all cases: Growth inhibition (MTT) assay, with or without MDR modulators
[1] = system: MES-SA/DxP5002 (DxP) cells; settings: for Fold resistance / Level of resistance of DxP cells to the cytotoxin compared with parental Dx5 (in words): DxP cells; for Dx5/DxP, fold of resistance difference in DxP cells compared with parental Dx5 cells: DxP vs Dx5
Procedure: Cells and Tissue Culture. […] Monolayer cultures of MES-SA cells and its variants were grown in McCoy's medium (Irvine Scientific, Santa Ana, Calif.) supplemented with 10% newborn calf serum (Gibco, Grand Island, N.Y.), 2 mM L-glutamine, and antibiotics(100 U/ml penicillin, 100 μg/ml streptomycin).
Growth Inhibition Assay. Approximately 8000 cells per well were seeded in 96 well plates and incubated with or without drugs for 72 hr at 37° C. in an atmosphere of 5% CO2. Growth inhibition was evaluated by the MTT colorimetric assay in triplicate or quadruplicate as previously described. The absorbance was measured with a ThermoMax microplate reader (Molecular Devices, Menlo Park, Calif.). […] The doubling times of MES-SA, D×5, and D×P were determined as previously described.
(§1) Reversal of MDR by Modulators. […] The modulation ratio was obtained by comparing IC50 s in the presence and absence of modulators.

MES-SA cells = assay type: cell-based, human; settings: for IC50: Homo sapiens, read-out: IC50 of drug-sensitive MES-SA cells (values in parenthesis)
Procedure: (§2) Cells and Tissue Culture. Details of the development and characterization of the human cell line MES-SA and its MDR variant MES-SA/Dx5 (D×5), which were derived from sarcoma elements of a uterine mixed Mullerian tumor, are described in Harker and Sikic (1985) Cancer Research 45:3810-3815. MES-SA/DxP5002 (DxP) cells were derived from Dx5.05 cells (D×5 cells selected and maintained at a DOX concentration of 0.5 μM) by step-wise selection in the presence of increasing DOX concentrations (from 40 nM up to 0.5 μM) and a constant PSC 833 concentration at 2 μM over a one-year period. Monolayer cultures of MES-SA cells and its variants were grown in McCoy's medium (Irvine Scientific, Santa Ana, Calif.) supplemented with 10% newborn calf serum (Gibco, Grand Island, N.Y.), 2 mM L-glutamine, and antibiotics(100 U/ml penicillin, 100 μg/ml streptomycin).
(§3) Growth Inhibition Assay. Approximately 8000 cells per well were seeded in 96 well plates and incubated with or without drugs for 72 hr at 37° C. in an atmosphere of 5% CO2. Growth inhibition was evaluated by the MTT colorimetric assay in triplicate or quadruplicate as previously described. The absorbance was measured with a ThermoMax microplate reader (Molecular Devices, Menlo Park, Calif.). The IC50 (drug concentration resulting in 50% inhibition of MTT dye formation, compared to controls) was determined directly from semi-logarithmic dose-response curves. The doubling times of MES-SA, D×5, and D×P were determined as previously described.
as §1

MES-SA/Dx5 (Dx5) cells = assay type: cell-based, human
Procedure: as §2, §3, §1

[2] = no modulator, relative to MES-SA
[3] = MES-SA cells, no modulator, 72 hr MTT

SMILES	Fold resistance [1, 2]	Dx5/DxP, fold of resistance difference in DxP cells compared with parental Dx5 cells [1]	IC50 (MES-SA cells; MES-SA cells, 72 hr MTT)	Fold resistance (MES-SA cells; [3])	Fold resistance (MES-SA/Dx5 (Dx5) cells; [2])	Level of resistance of DxP cells to the cytotoxin compared with parental Dx5 (in words) [1]	IC50 (MES-SA cells; MES-SA, 72 h)	Fold resistance ([1]; +2 μM PSC 833)	Fold resistance ([1]; +6 μM Verapamil)	Fold resistance (MES-SA cells; MES-SA cells, +2 μM PSC 833)	Fold resistance (MES-SA cells; MES-SA cells, +6 μM Verapamil)	Fold resistance (MES-SA/Dx5 (Dx5) cells; +2 μM PSC 833)	Fold resistance (MES-SA/Dx5 (Dx5) cells; +6 μM Verapamil)	Fold resistance ([1]; +3 μM cyclosporin A)	Fold resistance (MES-SA cells; MES-SA cells, +3 μM cyclosporin A)	Fold resistance (MES-SA/Dx5 (Dx5) cells; +3 μM cyclosporin A)
CCC1=C[C@@H]2CN(C1)Cc1c([nH]c3ccccc13)[C@@](C(=O)OC)(c1cc3c(cc1OC)N(C)[C@H]1[C@@](O)(C(=O)OC)[C@H](OC(C)=O)[C@]4(CC)C=CCN5CC[C@]31[C@@H]54)C2 [vinorelbine]	2 fold	9 fold	60 nM	1 fold	17 fold											
Cc1c2oc3c(C)ccc(C(=O)N[C@@H]4C(=O)N[C@H](C(C)C)C(=O)N5CCC[C@H]5C(=O)N(C)CC(=O)N(C)[C@@H](C(C)C)C(=O)O[C@@H]4C)c3nc-2c(C(=O)N[C@@H]2C(=O)N[C@H](C(C)C)C(=O)N3CCC[C@H]3C(=O)N(C)CC(=O)N(C)[C@@H](C(C)C)C(=O)O[C@@H]2C)c(N)c1=O [D actinomycin, dactinomycin] (I: T[dV]P[Sar][NMeV] / II: T[dV]P[Sar][NMeV]; ester I:1-I:C, II:1-II:C; linker I:N-II:N via Actinocin(9to1))	1 fold	183 fold		1 fold	183 fold	completely restored	0.3 nM									
CC[C@]1(O)C[C@H]2CN(CCc3c([nH]c4ccccc34)[C@@](C(=O)OC)(c3cc4c(cc3OC)N(C=O)[C@H]3[C@@](O)(C(=O)OC)[C@H](OC(C)=O)[C@]5(CC)C=CCN6CC[C@]43[C@@H]65)C2)C1 [Vincristine]	8 fold	25 fold	2 nM	1 fold	199 fold			7 fold	3 fold	0.7 fold	0.3-1 fold	1 fold	7 fold			
COc1cc([C@@H]2c3cc4c(cc3[C@@H](O[C@@H]3O[C@@H]5CO[C@@H](c6cccs6)O[C@H]5[C@H](O)[C@H]3O)[C@H]3COC(=O)[C@H]23)OCO4)cc(OC)c1O [Teniposide]	53 fold	3 fold	100 nM	1 fold	135 fold	moderately decreased resistance										
CC(=O)O[C@H]1C(=O)[C@@]2(C)[C@H]([C@H](OC(=O)c3ccccc3)[C@]3(O)C[C@H](OC(=O)[C@H](O)[C@@H](NC(=O)c4ccccc4)c4ccccc4)C(C)=C1C3(C)C)[C@]1(OC(C)=O)CO[C@@H]1C[C@@H]2O [Paclitaxel]	100 fold	2 fold	1 nM	1 fold	175 fold	high levels of resistance		5 fold	44 fold	0.3-1 fold	0.3-1 fold	1 fold	25 fold	38 fold	0.5-1 fold	13 fold

Reference: patent publication US5830697A, “P-glycoprotein mutant resistant to cyclosporin modulation” (The Board of Trustees of the Leland Stanford Junior …, priority 1997, dated 1998)
